# Source: ChEMBL document CHEMBL1201862, “PubChem BioAssay data set” (2004)
#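 These data come from cells grown in 96-well plates and exposed to compound for 48 hours at five concentrations. At the GI50, growth is halved.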 Activity calls are given as the source filed them. Rule as the data show it: active = GI50 up to about 1.1 µM and inactive = higher.
# How the values were obtained:
# Assay in all cases: DTP human tumour cell line panel, 48 h
# 786-0 = tested on: 786-0
# DLD-1 = tested on: DLD-1
# HCT-15 = tested on: HCT-15
# K562 = tested on: K562
# LOX IMVI = tested on: LOX IMVI
# Malme-3M = tested on: Malme-3M
# NCI-H23 = tested on: NCI-H23
# SF-295 = tested on: SF-295
# SK-MEL-28 = tested on: SK-MEL-28
# SK-MEL-5 = tested on: SK-MEL-5
# SN12C = tested on: SN12C
# SR = tested on: SR
# TK-10 = tested on: TK-10
# DU-145 = tested on: DU-145
# Hs-578T = tested on: Hs-578T
# M14 = tested on: M14
# MDA-MB-435 = tested on: MDA-MB-435
# OVCAR-4 = tested on: OVCAR-4
# T47D = tested on: T47D
# UO-31 = tested on: UO-31
SMILES,GI50 (786-0),GI50 (DLD-1),GI50 (HCT-15),GI50 (K562),GI50 (LOX IMVI),GI50 (Malme-3M),GI50 (NCI-H23),GI50 (SF-295),GI50 (SK-MEL-28),GI50 (SK-MEL-5),GI50 (SN12C),GI50 (SR),GI50 (TK-10),GI50 (DU-145),GI50 (Hs-578T),GI50 (M14),GI50 (MDA-MB-435),GI50 (OVCAR-4),GI50 (T47D),GI50 (UO-31)
Cc1nc2sccn2c1C(=O)NN,> 100 µM (inactive),> 100 µM (inactive),> 100 µM,> 100 µM (inactive),> 100 µM (inactive),> 100 µM (inactive),> 100 µM (inactive),> 100 µM (inactive),> 100 µM (inactive),> 100 µM (inactive),> 100 µM (inactive),> 100 µM (inactive),> 100 µM (inactive),–,–,–,–,–,–,–
O=c1[nH]nc(-c2ccccc2)n1/N=C/c1ccc([N+](=O)[O-])o1,4.88 µM (inactive),–,2.21 µM,3.64 µM (inactive),3.34 µM (inactive),4.26 µM (inactive),5.9 µM (inactive),10.4 µM (inactive),4.92 µM (inactive),14.8 µM (inactive),4.37 µM (inactive),1.08 µM (active),52.8 µM (inactive),3.45 µM (inactive),27.2 µM (inactive),4.14 µM (inactive),5.2 µM (inactive),6.65 µM (inactive),13.7 µM (inactive),4.32 µM (inactive)
N#CC1(C#N)C2C=CC(C3CCC=C32)C1(C#N)C#N (stereo unspecified),> 5.66 µM (inactive),–,> 10 µM,3.37 µM (inactive),> 10 µM (inactive),2.57 µM (inactive),> 10 µM (inactive),> 10 µM (inactive),> 10 µM (inactive),> 10 µM (inactive),> 10 µM (inactive),7.4 µM (inactive),> 5.7 µM (inactive),> 10 µM (inactive),> 10 µM (inactive),5.79 µM (inactive),> 10 µM (inactive),> 10 µM (inactive),> 5.33 µM (inactive),> 4.32 µM (inactive)
COc1ccc(C(=O)C(c2ccc(OC)cc2)C2(O)C(=O)Nc3c(C)cc(Cl)cc32)cc1 (stereo unspecified),> 100 µM (inactive),76.4 µM (inactive),> 100 µM,21.6 µM (inactive),–,> 100 µM (inactive),85.5 µM (inactive),54.8 µM (inactive),> 100 µM (inactive),–,58.1 µM (inactive),12.5 µM (inactive),> 100 µM (inactive),–,–,92 µM (inactive),–,63.2 µM (inactive),–,> 100 µM (inactive)
CN(/N=C\c1ccnc2ccccc12)c1ccccc1,18.5 µM (inactive),21.5 µM (inactive),17.1 µM,20.6 µM (inactive),17.2 µM (inactive),23.8 µM (inactive),22.3 µM (inactive),25.6 µM (inactive),29.8 µM (inactive),17.3 µM (inactive),29.9 µM (inactive),–,35.3 µM (inactive),–,–,18.9 µM (inactive),–,25.4 µM (inactive),–,25.1 µM (inactive)
CSc1nnc(COc2ccc(Cl)cc2)o1,> 100 µM (inactive),> 100 µM (inactive),> 100 µM,–,> 100 µM (inactive),> 100 µM (inactive),> 100 µM (inactive),> 100 µM (inactive),> 100 µM (inactive),> 100 µM (inactive),> 100 µM (inactive),–,> 100 µM (inactive),–,–,> 100 µM (inactive),–,> 100 µM (inactive),–,> 100 µM (inactive)
O=C(CN1C(=O)c2ccccc2C1=O)OC1C=CCCC1 (stereo unspecified),> 100 µM (inactive),> 100 µM (inactive),> 100 µM,> 100 µM (inactive),–,> 100 µM (inactive),–,–,> 100 µM (inactive),> 100 µM (inactive),> 100 µM (inactive),> 100 µM (inactive),> 100 µM (inactive),–,–,> 100 µM (inactive),–,> 100 µM (inactive),–,> 100 µM (inactive)
C[N+](C)(C)C1CC([N+](C)(C)C)C2c3ccccc3C21 (stereo unspecified),> 100 µM (inactive),> 100 µM (inactive),> 100 µM,> 100 µM (inactive),> 100 µM (inactive),> 100 µM (inactive),> 100 µM (inactive),> 100 µM (inactive),> 100 µM (inactive),> 100 µM (inactive),> 100 µM (inactive),–,> 100 µM (inactive),–,–,> 100 µM (inactive),–,> 100 µM (inactive),–,> 100 µM (inactive)
CCc1oc2ccccc2c1C(=O)c1cc(Br)c(O)c(Br)c1 [BENZBROMARONE],29.9 µM (inactive),–,27.6 µM,30.9 µM (inactive),24.7 µM (inactive),19.1 µM (inactive),24.5 µM (inactive),31.8 µM (inactive),41.4 µM (inactive),17.4 µM (inactive),26 µM (inactive),23.5 µM (inactive),24.7 µM (inactive),43.3 µM (inactive),24.5 µM (inactive),28.9 µM (inactive),29.7 µM (inactive),30 µM (inactive),19.9 µM (inactive),21.6 µM (inactive)
